test system: cancer cells; assay: MTT cytotoxic assay of esterification products (Cytotoxicity activity); format: cell-based, human; conditions: E4A esterified with Acetyl chloride (Acy = Acetyl), compounds isolated with HPLC
In short: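 Cytotoxicity was read by MTT (Carmichael method, modified), with cells seeded 24 h ahead of treatment. Sixteen human cancer lines spanning bone, lung, bladder, ovary, colon, pancreas, prostate, skin, mouth, kidney, breast, liver, brain, leukemia and cervix were used. Test samples were acyl chloride esterification products of triterpenes, as mixtures or HPLC-purified compounds.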

Row | Compound | Cytotoxicity activity
1 | CC(=O)OCC1(C)C(O)CCC2(C)C1CCC1(C)C2CC=C2C3CC(C)(C)C(O)C(O)C3(CO)C(O)CC21C (stereo not drawn) [Compound H1] | moderate
2 | CC(=O)OCC12C(O)CC3(C)C(=CCC4C5(C)CCC(O)C(C)(CO)C5CCC43C)C1CC(C)(C)C(O)C2O (stereo not drawn) [Compound H2] | moderate
3 | CC(=O)OCC1(C)C(O)CCC2(C)C1CCC1(C)C2CC=C2C3CC(C)(C)C(O)C(O)C3(COC(C)=O)C(O)CC21C (stereo not drawn) [Compound H3] | strong
4 | CC(=O)OCC1(C)C(O)CCC2(C)C1CCC1(C)C2CC=C2C3CC(C)(C)C(OC(C)=O)C(O)C3(COC(C)=O)C(O)CC21C (stereo not drawn) [Compound H4] | moderate
5 | CC(=O)OCC1(C)C(O)CCC2(C)C1CCC1(C)C2CC=C2C3CC(C)(C)C(O)C(OC(C)=O)C3(COC(C)=O)C(O)CC21C (stereo not drawn) [Compound H5] | moderate
6 | CC(=O)OCC1(C)C(OC(C)=O)CCC2(C)C1CCC1(C)C2CC=C2C3CC(C)(C)C(O)C(O)C3(COC(C)=O)C(O)CC21C (stereo not drawn) [Compound H6] | moderate
7 | CC(=O)OCC1(C)C(O)CCC2(C)C1CCC1(C)C2CC=C2C3CC(C)(C)C(O)C(O)C3(COC(C)=O)C(OC(C)=O)CC21C (stereo not drawn) [Compound H7] | moderate
8 | CC(=O)OCC1(C)C(O)CCC2(C)C1CCC1(C)C2CC=C2C3CC(C)(C)C(OC(C)=O)C(OC(C)=O)C3(COC(C)=O)C(O)CC21C (stereo not drawn) [Compound H8] | weak
9 | CC(=O)OCC1(C)C(OC(C)=O)CCC2(C)C1CCC1(C)C2CC=C2C3CC(C)(C)C(O)C(OC(C)=O)C3(COC(C)=O)C(O)CC21C (stereo not drawn) [Compound H9] | weak
10 | CC(=O)OCC1(C)C(OC(C)=O)CCC2(C)C1CCC1(C)C2CC=C2C3CC(C)(C)C(O)C(O)C3(COC(C)=O)C(OC(C)=O)CC21C (stereo not drawn) [Compound H10] | weak
11 | CC(=O)OCC1(C)C(OC(C)=O)CCC2(C)C1CCC1(C)C2CC=C2C3CC(C)(C)C(OC(C)=O)C(O)C3(COC(C)=O)C(O)CC21C (stereo not drawn) [Compound H11] | weak
12 | CC(=O)OCC1(C)C(O)CCC2(C)C1CCC1(C)C2CC=C2C3CC(C)(C)C(O)C(OC(C)=O)C3(COC(C)=O)C(OC(C)=O)CC21C (stereo not drawn) [Compound H12] | weak
13 | CC(=O)OCC1(C)C(O)CCC2(C)C1CCC1(C)C2CC=C2C3CC(C)(C)C(OC(C)=O)C(O)C3(COC(C)=O)C(OC(C)=O)CC21C (stereo not drawn) [Compound H13] | weak
14 | CC(=O)OCC1(C)C(OC(C)=O)CCC2(C)C1CCC1(C)C2CC=C2C3CC(C)(C)C(O)C(OC(C)=O)C3(COC(C)=O)C(O)CC21C (stereo not drawn) [Compound H14] | weak
15 | CC(=O)OCC1(C)C(OC(C)=O)CCC2(C)C1CCC1(C)C2CC=C2C3CC(C)(C)C(OC(C)=O)C(OC(C)=O)C3(COC(C)=O)C(O)CC21C (stereo not drawn) [Compound H15] | weak
16 | CC(=O)OCC1(C)C(O)CCC2(C)C1CCC1(C)C2CC=C2C3CC(C)(C)C(OC(C)=O)C(OC(C)=O)C3(COC(C)=O)C(OC(C)=O)CC21C (stereo not drawn) [Compound H16] | weak

Row | Compound | Cytotoxicity activity
17 | CC(=O)OCC1(C)C(OC(C)=O)CCC2(C)C1CCC1(C)C2CC=C2C3CC(C)(C)C(OC(C)=O)C(O)C3(COC(C)=O)C(OC(C)=O)CC21C (stereo not drawn) [Compound H17] | weak
18 | CC(=O)OCC1(C)C(OC(C)=O)CCC2(C)C1CCC1(C)C2CC=C2C3CC(C)(C)C(O)C(OC(C)=O)C3(COC(C)=O)C(OC(C)=O)CC21C (stereo not drawn) [Compound H18] | weak
19 | CC(=O)OCC1(C)C(OC(C)=O)CCC2(C)C1CCC1(C)C2CC=C2C3CC(C)(C)C(OC(C)=O)C(OC(C)=O)C3(COC(C)=O)C(OC(C)=O)CC21C (stereo not drawn) [Compound H19] | none
20 | CC(=O)OCC12C(O)CC3(C)C(=CCC4C5(C)CCC(O)C(C)(CO)C5CCC43C)C1CC(C)(C)C(OC(C)=O)C2OC(C)=O (stereo not drawn) [Compound H20] | moderate
21 | CC(=O)OCC1(C)C(O)CCC2(C)C1CCC1(C)C2CC=C2C3CC(C)(C)C(OC(C)=O)C(OC(C)=O)C3(CO)C(O)CC21C (stereo not drawn) [Compound H21] | moderate
22 | CC(=O)OC1C(OC(C)=O)C2(CO)C(OC(C)=O)CC3(C)C(=CCC4C5(C)CCC(O)C(C)(CO)C5CCC43C)C2CC1(C)C (stereo not drawn) [Compound H22] | moderate
23 | CC(=O)OC1C(OC(C)=O)C2(CO)C(O)CC3(C)C(=CCC4C5(C)CCC(OC(C)=O)C(C)(CO)C5CCC43C)C2CC1(C)C (stereo not drawn) [Compound H23] | moderate
24 | CC(=O)OC1C(OC(C)=O)C2(CO)C(O)CC3(C)C(=CCC4C5(C)CCC(O)C(C)(CO)C5CCC43C)C2CC1(C)C (stereo not drawn) [Compound H24] | moderate
25 | CC(=O)OCC12C(O)CC3(C)C(=CCC4C5(C)CCC(O)C(C)(CO)C5CCC43C)C1CC(C)(C)C(OC(C)=O)C2O (stereo not drawn) [Compound H25] | moderate
26 | CC(=O)OCC12C(O)CC3(C)C(=CCC4C5(C)CCC(O)C(C)(CO)C5CCC43C)C1CC(C)(C)C(O)C2OC(C)=O (stereo not drawn) [Compound H26] | moderate
27 | CC(=O)OCC12C(O)CC3(C)C(=CCC4C5(C)CCC(OC(C)=O)C(C)(CO)C5CCC43C)C1CC(C)(C)C(O)C2O (stereo not drawn) [Compound H27] | moderate
28 | CC(=O)OCC12C(OC(C)=O)CC3(C)C(=CCC4C5(C)CCC(O)C(C)(CO)C5CCC43C)C1CC(C)(C)C(O)C2O (stereo not drawn) [Compound H28] | moderate
29 | CC(=O)OCC1(C)C(O)CCC2(C)C1CCC1(C)C2CC=C2C3CC(C)(C)C(OC(C)=O)C(O)C3(CO)C(O)CC21C (stereo not drawn) [Compound H29] | moderate
30 | CC(=O)OCC1(C)C(O)CCC2(C)C1CCC1(C)C2CC=C2C3CC(C)(C)C(O)C(OC(C)=O)C3(CO)C(O)CC21C (stereo not drawn) [Compound H30] | moderate
31 | CC(=O)OCC1(C)C(OC(C)=O)CCC2(C)C1CCC1(C)C2CC=C2C3CC(C)(C)C(O)C(O)C3(CO)C(O)CC21C (stereo not drawn) [Compound H31] | moderate
32 | CC(=O)OCC1(C)C(O)CCC2(C)C1CCC1(C)C2CC=C2C3CC(C)(C)C(O)C(O)C3(CO)C(OC(C)=O)CC21C (stereo not drawn) [Compound H32] | moderate

same assay, conditions: E4A esterified with Crotonoyl chloride (Cro = Crotonoyl), compounds isolated with HPLC

Row | Compound | Cytotoxicity activity
33 | CC=CC(=O)OCC1(C)C(O)CCC2(C)C1CCC1(C)C2CC=C2C3CC(C)(C)C(O)C(O)C3(CO)C(O)CC21C (stereo not drawn) [Compound I1] | moderate
34 | CC=CC(=O)OCC12C(O)CC3(C)C(=CCC4C5(C)CCC(O)C(C)(CO)C5CCC43C)C1CC(C)(C)C(O)C2O (stereo not drawn) [Compound I2] | moderate
35 | CC=CC(=O)OCC1(C)C(O)CCC2(C)C1CCC1(C)C2CC=C2C3CC(C)(C)C(O)C(O)C3(COC(=O)C=CC)C(O)CC21C (stereo not drawn) [Compound I3] | strong
36 | CC=CC(=O)OCC1(C)C(O)CCC2(C)C1CCC1(C)C2CC=C2C3CC(C)(C)C(OC(=O)C=CC)C(O)C3(COC(=O)C=CC)C(O)CC21C (stereo not drawn) [Compound I4] | moderate
37 | CC=CC(=O)OCC1(C)C(O)CCC2(C)C1CCC1(C)C2CC=C2C3CC(C)(C)C(O)C(OC(=O)C=CC)C3(COC(=O)C=CC)C(O)CC21C (stereo not drawn) [Compound I5] | moderate
38 | CC=CC(=O)OCC1(C)C(OC(=O)C=CC)CCC2(C)C1CCC1(C)C2CC=C2C3CC(C)(C)C(O)C(O)C3(COC(=O)C=CC)C(O)CC21C (stereo not drawn) [Compound I6] | moderate
39 | CC=CC(=O)OCC1(C)C(O)CCC2(C)C1CCC1(C)C2CC=C2C3CC(C)(C)C(O)C(O)C3(COC(=O)C=CC)C(OC(=O)C=CC)CC21C (stereo not drawn) [Compound I7] | moderate
40 | CC=CC(=O)OCC1(C)C(O)CCC2(C)C1CCC1(C)C2CC=C2C3CC(C)(C)C(OC(=O)C=CC)C(OC(=O)C=CC)C3(COC(=O)C=CC)C(O)CC21C (stereo not drawn) [Compound I8] | weak
41 | CC=CC(=O)OCC1(C)C(OC(=O)C=CC)CCC2(C)C1CCC1(C)C2CC=C2C3CC(C)(C)C(O)C(OC(=O)C=CC)C3(COC(=O)C=CC)C(O)CC21C (stereo not drawn) [Compound I9] | weak
42 | CC=CC(=O)OCC1(C)C(OC(=O)C=CC)CCC2(C)C1CCC1(C)C2CC=C2C3CC(C)(C)C(O)C(O)C3(COC(=O)C=CC)C(OC(=O)C=CC)CC21C (stereo not drawn) [Compound I10] | weak
43 | CC=CC(=O)OCC1(C)C(OC(=O)C=CC)CCC2(C)C1CCC1(C)C2CC=C2C3CC(C)(C)C(OC(=O)C=CC)C(O)C3(COC(=O)C=CC)C(O)CC21C (stereo not drawn) [Compound I11] | weak
44 | CC=CC(=O)OCC1(C)C(O)CCC2(C)C1CCC1(C)C2CC=C2C3CC(C)(C)C(O)C(OC(=O)C=CC)C3(COC(=O)C=CC)C(OC(=O)C=CC)CC21C (stereo not drawn) [Compound I12] | weak
45 | CC=CC(=O)OCC1(C)C(O)CCC2(C)C1CCC1(C)C2CC=C2C3CC(C)(C)C(OC(=O)C=CC)C(O)C3(COC(=O)C=CC)C(OC(=O)C=CC)CC21C (stereo not drawn) [Compound I13] | weak
46 | CC=CC(=O)OCC1(C)C(OC(=O)C=CC)CCC2(C)C1CCC1(C)C2CC=C2C3CC(C)(C)C(O)C(OC(=O)C=CC)C3(COC(=O)C=CC)C(O)CC21C (stereo not drawn) [Compound I14] | weak

same assay, conditions: MTT cytotoxic assay, isolated esterification products of E4A

Row | Compound | Cytotoxicity activity
47 | CCC(CC)C(=O)OCC1(C)C(O)CCC2(C)C1CCC1(C)C2CC=C2C3CC(C)(C)C(OC(=O)C(CC)CC)C(O)C3(CO)C(O)CC21C (stereo not drawn) [Compound E29] | moderate
48 | CCC(CC)C(=O)OCC1(C)C(O)CCC2(C)C1CCC1(C)C2CC=C2C3CC(C)(C)C(O)C(OC(=O)C(CC)CC)C3(CO)C(O)CC21C (stereo not drawn) [Compound E30] | moderate
49 | CCC(CC)C(=O)OCC1(C)C(OC(=O)C(CC)CC)CCC2(C)C1CCC1(C)C2CC=C2C3CC(C)(C)C(O)C(O)C3(CO)C(O)CC21C (stereo not drawn) [Compound E31] | moderate
50 | CCC(CC)C(=O)OCC1(C)C(O)CCC2(C)C1CCC1(C)C2CC=C2C3CC(C)(C)C(O)C(O)C3(CO)C(OC(=O)C(CC)CC)CC21C (stereo not drawn) [Compound E32] | moderate
51 | C/C=C(/C)C(=O)OC[C@]1(C)[C@@H]2CC[C@]3(C)[C@H](CC=C4[C@@H]5CC(C)(C)[C@@H](O)[C@H](O)[C@]5(CO)[C@H](O)C[C@]43C)[C@@]2(C)CC[C@@H]1OC(=O)/C(C)=C\C [Compound G31] | moderate
